This note sets out measurements from patent US12485078B2, “Personal dental care product for caries treatment” (Credentis AG, priority 2016, dated 2025).

Series [1] in a line: pH at which the peptide starts to undergo self-assembly. Type of series: physicochemical. The settings on record: in solution. The source says:
As used herein, the pH at which the self-assembling peptide starts to undergo self-assembly refers to the pH below which a significant extent of self-assembly of the peptides in solution is observed, which means that at least about 25%, about 30%, about 35%, about 40%, about 45%, about 50%, about 55%, about 60%, about 65%, about 70%, about 75%, about 80%, about 85%, about 90%, about 95%, about 99% or even about 100% of the peptides found in the dental care product are assembled. In a preferred embodiment, at least about 25% of the peptides found in the dental care product are assembled below the pH at which the peptide starts to undergo self-assembly.
Further, the skilled person is aware of numerous methods to determine the pH at which a peptide of the present invention will start self-assembly at a given ionic strength. Suitable methods are denoted e.g. in a publication by Aggeli et al. (2003, J Am Chem Soc, 125, 9619-9628).

Series [2] is described as follows: self-assembling kinetic by measurements of elastic modulus G' (FIG. 6). It is filed as physicochemical. Particulars: 15 mg/ml; neutral pH; independent of ionic strength (buffers 140-165 mM); 0.1% strain, 37° C., 1 rad/second. As for the experimental part:
P11-4 was prepared at 15 mg/ml with different buffer compositions (see below) measured at 0.1% strain, 37° C. and a frequency of 1 rad/second. Self-assembly of peptide monomers to polymers takes more than 5 min independent of the used ionic strength at neutral pH. • Squares (top line of symbols)−NaCl: Tris (0.055 M)+NaCl, final ionic strength 142 mM; • Artificial saliva (second line of symbols from top): Tris, Ca(NO3)2, KH2PO4 (ratio 0.77:0.14:0.08), ionic strength 142 mM; • Dulbecco's Modified Eagle Medium (DMEM): NaCl, NaHCO3, KCl, CaCl2, MgSO4 (ratio 0.66:0.4:0.05:0.02:0.007), ionic strength 165 mM; • MgSO4: 0.055 M Tris+0.192 M MgSO4 0.14 M Ionic strength

The nature of series [3]: self-assembling kinetic by quartz crystal microbalance with dissipation monitoring (QCM-D, FIG. 7). Type of series: physicochemical. The settings on record: 10 mg/ml P11-4 in PBS pH 8.5 on P11-4 coated amine-coupling sensor. As for the experimental part:
P11-4 peptide was layered on the surface of the amine-coupling sensor at 1 mg/ml in PBS at pH8.5. After 1 hour and 1 hour 25 minutes, the sensor was washed with PBS pH 8.5. After 1 hour and 38 minutes, 10 mg/ml P11-4 peptide in PBS pH 8.5 were injected. After 2 hours, 0.1 M HCl were injected to induce self-assembly.
It can be seen that essentially complete self-assembly has occurred about 30 min after injection of 0.1 M HCl. Resonance frequency F (left scale, Hz) and energy dissipation factor D (right scale), triangle=frequency, square=dissipation are shown.

Series [4] can be described thus: Penetration of P11-4 (200 ppm, spiked with 10 ppm ATTO647-P11-4, 25 mM TRIS) into artificial subsurface lesions, confocal microscopy. On the set-up: species or system human. The protocol:
Creation of artificial lesions on extracted human molar teeth was performed as described by Lo et al. 2010 (J Dent. 38(4):352-359). To define the position of the demineralized subsurface area (i.e., artificial carious lesion or white spot), the tooth was covered with colourless nail varnish, leaving a window of approximately 4×4 mm. The tooth was placed in demineralization buffer (2.2 mM CaCl2, 2.2 mM NaH2PO4, 50 mM acetic acid; pH adjusted with 1 M KOH to 4.4) for 3 d at 37° C. To ensure that all pores are open, as in a typical active caries lesion, the resulting subsurface lesions were treated with 10 μL of 2% NaClO (incubation for 1 min), rinsed, and air-dried at room temperature.
• A 200 ppm (i.e., 200 μg/ml) solution of P11-4 (SEQ ID NO: 2), spiked with 10 ppm ATTO647-P11-4 (fluorescence labelled P11-4 (SEQ ID NO: 6): Ac-QQRFEWEFEQQSGSGC-(ATTO647)-NH2), i.e., 1:20, in 25 mM TRIS buffer was prepared at different pH, in particular, at 8.4 or 8.5 or 6.3, 6.5 or 6.8) • As specified in the table below, tooth were optionally pretreated, e.g., by incubation in human saliva for one day (about 24 hours), optionally followed by 5 min sonication (258 hz with a sonic toothbrush, Sonicare Diamond Clean® (Philips)) or by immersion in 2% NaClO for 1 min. • Tooth were immersed in the P11-4 solution for a defined period of time, 1, 2 or 5 min, and then removed and washed in water for 10 min or in remineralization buffer (2 mM Ca(NO3), 1.2 mM KHPO4, and 60 mM Tris/HCl, pH adjusted to 7.4 with 1 M KOH) for 4 days and/or 6 days. • Confocal assessment after 1, 2 or 5 min incubation was carried out while the teeth were in P11-4 solution, and optionally, after washing in water or in remineralization buffer after 10 min or 4 or 6 days. c) Confocal Microscopy
Samples were placed in a μ-slide I (ibidi, Martinsried) in dest. water and analyzed by a confocal laser microscope (Olympus IX81). The recorded stack of four 2-dimensional images each projected the lesion volume of 51.4 μm thickness, giving a total assessment depth of 205 μm (objective: UPLSAPO 20×/NA 0.75; helium-neon gas laser; excitation: 633 nm and emission: 668 nm). Images were analyzed by Olympus software (FluoView FV1000).

No end group written: not given here.

Turning to “QQRFEWEFEQQ [self-assembling peptide of 11 amino acids]”, the “pH at which the self-assembling peptides start to undergo self-assembly” value in series [1] is on record as “about 7.5”. For the same sequence, the “time for self-assembly of peptide monomers to polymers” value in series [2] is “more than 5 min”. The “time to essentially complete self-assembly after injection of 0.1 M HCl” value in series [3] was “about 30 min”. Also, the “peptide in the lesions after 4 days' incubation in remineralization buffer” value in series [4] (pH8.5, FIG. 9Be) is “Lower but significant amounts”. Besides, in series [4] (pH8.5, teeth 10 and 1, FIG. 9Bb), the “peptide in the lesions after 1 min incubation” value is listed as “already detectable”. In addition, in series [4] (pH8.5, teeth 10 and 1, FIG. 9Bc, 9Bd), the “peptide in the lesions after 2 min or 5 min incubation” value was “most peptide was detected”. Further, in series [4] (remineralization buffer versus water wash (tooth 10 versus tooth 2)), the “effect of incubation in remineralization buffer after contact with P11-4 containing solution” value is given as “improves maintenance of the self-assembling peptide in the lesion”. Also, the “effect of pellicle formation by saliva on infiltration at pH 6.3-6.8” value in series [4] (teeth 3, 13) is listed as “further decreased infiltration by peptide”. The “peptide detectable in the lesions after incubation at pH 6.3-6.8 (polymerized form)” value in series [4] (teeth 4, 12, 3, 13, versus incubation at pH 8.4 or 8.5) was “lower amounts of peptide”. Also, the “negative effect of pellicle after cleaning by sonication or NaClO” value in series [4] (teeth ZR3 (sonication) and ZR2 (NaClO), after incubation with human saliva) is given as “could be compensated for”. In addition, in series [4] (tooth ZR1, pH 8.5), the “effect of sonification pretreatment before incubation on peptide in the lesions” value is “increased presence of peptide in the lesions”. In series [4] (versus no pre-incubation with saliva), the “peptide detected after pellicle formation and cleaning by sonification” value is on record as “even higher amounts than without pre-incubation with saliva”.
